Assay results from PubChem BioAssay AID1845216 (Molecular Pharmacology Branch, DTP, NCI, 2023).

System: SW 982 tumor spheroid viability
Test: Anticancer human tumor SW 982 cell line growth inhibition;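 further: spheroids exposed to compound for 7 days before readout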
Conditions: spheroids with HUVEC and MSC; for IC50: curve of first compound; for viability, T/C: stronger effect = lower value
How it was run: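 Complex spheroids of malignant cells with endothelial cells and mesenchymal stem cells; agents alone or combined, from near clinical Cmax (or 10 microM if unknown) down in half-log steps, 0.25% DMSO final.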

[1] = second compound 0.003 µM, first compound 0.00949 µM
[2] = second compound 0.003 µM, first compound 0.03 µM
[3] = second compound 0.003 µM, first compound 0.0949 µM
[4] = second compound 0.003 µM, first compound 0.3 µM
[5] = second compound 0.003 µM, first compound 0.949 µM
[6] = second compound 0.003 µM, first compound 3 µM

`Cc1sc2c(c1C)C(c1ccc(Cl)cc1)=NC(CC(=O)Nc1ccc(O)cc1)c1nnc(C)n1-2` (stereo not given) + CC[C@@]1(O)C(=O)OCc2c1cc1n(c2=O)Cc2cc3c(CN(C)C)c(O)ccc3nc2-1 was tested. Which IC50 (second compound 0.003 µM) did it give?
Its IC50 is 285 nM.

What about the IC50 (second compound 0.00949 µM) of the same compound?
The IC50 was 553 nM.

What about the IC50 (second compound 0.03 µM) of the same compound?
The IC50 was 490 nM.

What about the IC50 (second compound 0.0949 µM) of the same compound?
Its IC50 is 450 nM.

What about the IC50 (second compound 0.3 µM) of the same compound?
Its IC50 is 254 nM.

What about the viability, T/C [1] of the same compound?
The viability, T/C was 112%.

And the viability, T/C [2]?
Its viability, T/C is 110%.

And the viability, T/C [3]?
The viability, T/C was 76.4%.

And the viability, T/C [4]?
The viability, T/C was 49.8%.

And the viability, T/C [5]?
The viability, T/C was 40.1%.

What about the viability, T/C [6] of the same compound?
Its viability, T/C is 30.5%.

What about the viability, T/C (second compound 0.00949 µM, first compound 0.00949 µM) of the same compound?
The viability, T/C was 97%.

And the viability, T/C (second compound 0.00949 µM, first compound 0.03 µM)?
Its viability, T/C is 98.9%.

And the viability, T/C (second compound 0.00949 µM, first compound 0.0949 µM)?
The viability, T/C was 81.5%.

And the viability, T/C (second compound 0.00949 µM, first compound 0.3 µM)?
Its viability, T/C is 63.8%.

What about the viability, T/C (second compound 0.00949 µM, first compound 0.949 µM) of the same compound?
The viability, T/C was 36.9%.

And the viability, T/C (second compound 0.00949 µM, first compound 3 µM)?
Its viability, T/C is 36.4%.

And the viability, T/C (second compound 0.03 µM, first compound 0.00949 µM)?
Its viability, T/C is 97.1%.

And the viability, T/C (second compound 0.03 µM, first compound 0.03 µM)?
Its viability, T/C is 95.8%.

What about the viability, T/C (second compound 0.03 µM, first compound 0.0949 µM) of the same compound?
The viability, T/C was 83.2%.

What about the viability, T/C (second compound 0.03 µM, first compound 0.3 µM) of the same compound?
The viability, T/C was 58.4%.

And the viability, T/C (second compound 0.03 µM, first compound 0.949 µM)?
Its viability, T/C is 38.8%.

What about the viability, T/C (second compound 0.03 µM, first compound 3 µM) of the same compound?
Its viability, T/C is 29.8%.

And the viability, T/C (second compound 0.0949 µM, first compound 0.00949 µM)?
Its viability, T/C is 95.2%.

What about the viability, T/C (second compound 0.0949 µM, first compound 0.03 µM) of the same compound?
The viability, T/C was 92.1%.

And the viability, T/C (second compound 0.0949 µM, first compound 0.0949 µM)?
Its viability, T/C is 85.9%.

And the viability, T/C (second compound 0.0949 µM, first compound 0.3 µM)?
Its viability, T/C is 57.8%.

And the viability, T/C (second compound 0.0949 µM, first compound 0.949 µM)?
The viability, T/C was 35.5%.

And the viability, T/C (second compound 0.0949 µM, first compound 3 µM)?
The viability, T/C was 29.2%.

And the viability, T/C (second compound 0.3 µM, first compound 0.00949 µM)?
The viability, T/C was 73.5%.

What about the viability, T/C (second compound 0.3 µM, first compound 0.03 µM) of the same compound?
Its viability, T/C is 80.6%.

What about the viability, T/C (second compound 0.3 µM, first compound 0.0949 µM) of the same compound?
Its viability, T/C is 71%.

And the viability, T/C (second compound 0.3 µM, first compound 0.3 µM)?
The viability, T/C was 45.6%.

What about the viability, T/C (second compound 0.3 µM, first compound 0.949 µM) of the same compound?
The viability, T/C was 30.4%.

What about the viability, T/C (second compound 0.3 µM, first compound 3 µM) of the same compound?
The viability, T/C was 22.9%.

Which IC50 (second compound 30 pM) does the source give for `Cn1ncnc1[C@H]1c2n[nH]c(=O)c3cc(F)cc(c23)N[C@@H]1c1ccc(F)cc1` + COc1cc2c(cc1O)CCNC21CSC2c3c(OC(C)=O)c(C)c4c(c3C(COC1=O)N1C(O)C3Cc5cc(C)c(OC)c(O)c5C(C21)N3C)OCO4 here?
The IC50 was over 3000 nM.

What about the IC50 (second compound 94.9 pM) of the same compound?
Its IC50 is 2740 nM.

What about the IC50 (second compound 0.0003 µM) of the same compound?
Its IC50 is 1830 nM.

And the IC50 (second compound 0.000949 µM)?
The IC50 was under 9.49 nM.

What about the IC50 (second compound 0.003 µM) of the same compound?
The IC50 was under 9.49 nM.

And the viability, T/C (second compound 30 pM, first compound 0.00949 µM)?
Its viability, T/C is 93.6%.

And the viability, T/C (second compound 30 pM, first compound 0.03 µM)?
The viability, T/C was 89.1%.

What about the viability, T/C (second compound 30 pM, first compound 0.0949 µM) of the same compound?
Its viability, T/C is 85.9%.

What about the viability, T/C (second compound 30 pM, first compound 0.3 µM) of the same compound?
The viability, T/C was 85%.

And the viability, T/C (second compound 30 pM, first compound 0.949 µM)?
The viability, T/C was 76.3%.

What about the viability, T/C (second compound 30 pM, first compound 3 µM) of the same compound?
Its viability, T/C is 52.6%.

And the viability, T/C (second compound 94.9 pM, first compound 0.00949 µM)?
The viability, T/C was 80.7%.

What about the viability, T/C (second compound 94.9 pM, first compound 0.03 µM) of the same compound?
The viability, T/C was 85.3%.

And the viability, T/C (second compound 94.9 pM, first compound 0.0949 µM)?
Its viability, T/C is 82%.

And the viability, T/C (second compound 94.9 pM, first compound 0.3 µM)?
Its viability, T/C is 82%.

What about the viability, T/C (second compound 94.9 pM, first compound 0.949 µM) of the same compound?
Its viability, T/C is 66.3%.

And the viability, T/C (second compound 94.9 pM, first compound 3 µM)?
Its viability, T/C is 48.6%.

What about the viability, T/C (second compound 0.0003 µM, first compound 0.00949 µM) of the same compound?
Its viability, T/C is 76%.

And the viability, T/C (second compound 0.0003 µM, first compound 0.03 µM)?
Its viability, T/C is 73.5%.

What about the viability, T/C (second compound 0.0003 µM, first compound 0.0949 µM) of the same compound?
Its viability, T/C is 70%.

And the viability, T/C (second compound 0.0003 µM, first compound 0.3 µM)?
The viability, T/C was 76.1%.

And the viability, T/C (second compound 0.0003 µM, first compound 0.949 µM)?
The viability, T/C was 54.6%.

What about the viability, T/C (second compound 0.0003 µM, first compound 3 µM) of the same compound?
The viability, T/C was 46.6%.

What about the viability, T/C (second compound 0.000949 µM, first compound 0.00949 µM) of the same compound?
The viability, T/C was 32.3%.

What about the viability, T/C (second compound 0.000949 µM, first compound 0.03 µM) of the same compound?
Its viability, T/C is 28.7%.

What about the viability, T/C (second compound 0.000949 µM, first compound 0.0949 µM) of the same compound?
Its viability, T/C is 25.2%.

What about the viability, T/C (second compound 0.000949 µM, first compound 0.3 µM) of the same compound?
Its viability, T/C is 27%.

And the viability, T/C (second compound 0.000949 µM, first compound 0.949 µM)?
The viability, T/C was 14.8%.

And the viability, T/C (second compound 0.000949 µM, first compound 3 µM)?
The viability, T/C was 2.84%.

And the viability, T/C [1]?
Its viability, T/C is 0.32%.

What about the viability, T/C [2] of the same compound?
The viability, T/C was 0.45%.

And the viability, T/C [3]?
The viability, T/C was 0.37%.

And the viability, T/C [4]?
Its viability, T/C is 0.38%.

What about the viability, T/C [5] of the same compound?
The viability, T/C was 0.36%.

And the viability, T/C [6]?
Its viability, T/C is 0.91%.
